According to ChEMBL document CHEMBL3832541, “DailyMed|setid=33ddfdb1-b4bc-464d-a186-49c4b156279f | DOXORUBICIN HYDROCHLORIDE- doxorubicin hydrochloride injection, solution|Actavis Pharma, Inc”:
Values joined by “and” are separate entries in the source; they are usually repeats but may differ in a detail not shown here. Identical values can stand only once.

What was measured:
Assay type in all cases: ADME, organism-based
[1] = test system: Homo sapiens; experiment: (§1) Evaluation of pharmacokinetic parameters for Doxorubicin hydrochloride following single intravenous administration of Doxorubicin hydrochloride solution to patients with various types of tumors.; settings: in vivo, iv, dosed compound id 8, dosed compound name DOXORUBICIN HYDROCHLORIDE, regimen Single dose, tissue Plasma
[2] = as §1; settings: human, dosed compound id 8, dosed compound name DOXORUBICIN HYDROCHLORIDE, regimen Single dose, tissue Plasma, read-out: Protein binding (converted)
[3] = test system: Homo sapiens; experiment: Evaluation of pharmacokinetic parameters for Doxorubicin hydrochloride following multiple intravenous administration of Doxorubicin hydrochloride solution to children, adolescents and adults subjects; settings: in vivo, dose 10 to 75 mg/m2, dosed compound id 8, dosed compound name DOXORUBICIN HYDROCHLORIDE, gender male and female, regimen Multiple dose, tissue Plasma

CL ([1]; gender female): 433 mL/min/m2
t1/2-terminal ([1]; gender female): 35 h
CL ([1]; gender male): 1088 mL/min/m2
t1/2-terminal ([1]; gender male): 54 h
t1/2-distribution [1]: 5 min
t1/2-terminal [1]: 20 to 48 h
fraction unbound [2]: 0.25
SMILES: COc1cccc2c1C(=O)c1c(O)c3c(c(O)c1C2=O)C[C@@](O)(C(=O)CO)C[C@@H]3O[C@H]1C[C@H](N)[C@H](O)[C@H](C)O1.Cl [DOXORUBICIN HYDROCHLORIDE]
CL [3]: 1443 mL/min/m2 and 1540 mL/min/m2 and 813 mL/min/m2
